Measured values from ChEMBL document CHEMBL2375285, “Novel (coumarin-3-yl)carbamates as selective MAO-B inhibitors: synthesis, in vitro and in vivo assays, theoretical evaluation of ADME properties and docking study” (Eur J Med Chem, 2013).
The source made the active and inactive calls. The calls are words filed in the database; no cut-off is given here.

Key:
Mus musculus [1] = assay: Neurotoxicity in CD1 mouse assessed as decrease in motor activity at 10 mg/kg, ip measured for 1 hr relative to control; assay type: toxicity, organism-based; design: dose 10 mg/kg, route intraperitoneal; settings: in vivo
Mus musculus [2] = assay: Potentiation of L-dopa/carbidopa activity in reserpine-treated CD1 mouse assessed as increase in movement at 100 mg/kg, ip administered 22 hrs post reserpine challenge followed by L-dopa/carbidopa adminstration at 30 mins measured after 1 hr relative to control; assay type: functional, organism-based; design: dose 100 mg/kg
Mus musculus [3] = assay: Potentiation of L-dopa/carbidopa activity in reserpine-treated CD1 mouse assessed as increase in movement at 10 mg/kg, ip administered 22 hrs post reserpine challenge followed by L-dopa/carbidopa adminstration at 30 mins measured after 1 hr relative to control; assay type: functional, organism-based; design: dose 10 mg/kg
Mus musculus [4] = assay: Potentiation of L-dopa/carbidopa activity in reserpine-treated CD1 mouse assessed as increase in velocity at 100 mg/kg, ip administered 22 hrs post reserpine challenge followed by L-dopa/carbidopa adminstration at 30 mins measured after 1 hr relative to control; assay type: functional, organism-based; design: dose 100 mg/kg
Mus musculus [5] = assay: Potentiation of L-dopa/carbidopa activity in reserpine-treated CD1 mouse assessed as increase in motor activity at 100 mg/kg, ip administered 22 hrs post reserpine challenge followed by L-dopa/carbidopa adminstration at 30 mins measured after 1 hr relative to control; assay type: functional, organism-based; design: dose 100 mg/kg
Mus musculus [6] = assay: Potentiation of L-dopa/carbidopa activity in reserpine-treated CD1 mouse assessed as increase in motor activity at 10 mg/kg, ip administered 22 hrs post reserpine challenge followed by L-dopa/carbidopa adminstration at 30 mins measured after 1 hr relative to control; assay type: functional, organism-based; design: dose 10 mg/kg
Mus musculus [7] = assay: Neurotoxicity in CD1 mouse assessed as decrease in straightening at 10 mg/kg, ip measured for 1 hr relative to control; assay type: toxicity, organism-based; design: dose 10 mg/kg, route intraperitoneal; settings: in vivo
Mus musculus [8] = assay: Neurotoxicity in CD1 mouse assessed as decrease in velocity at 10 mg/kg, ip measured for 1 hr relative to control; assay type: toxicity, organism-based; design: dose 10 mg/kg, route intraperitoneal; settings: in vivo
Mus musculus [9] = assay: Potentiation of L-dopa/carbidopa activity in reserpine-treated CD1 mouse assessed as increase in straightening at 100 mg/kg, ip administered 22 hrs post reserpine challenge followed by L-dopa/carbidopa adminstration at 30 mins measured after 1 hr relative to control; assay type: functional, organism-based; design: dose 100 mg/kg
Mus musculus [10] = assay: Neurotoxicity in CD1 mouse assessed as decrease in movement at 10 mg/kg, ip measured for 1 hr relative to control; assay type: toxicity, organism-based; design: dose 10 mg/kg, route intraperitoneal; settings: in vivo
Mus musculus [11] = assay: Toxicity in reserpine-treated CD1 mouse assessed as mortality at 100 mg/kg, ip measured for 24 to 48 hrs; assay type: organism-based; design: dose 100 mg/kg, route intraperitoneal; settings: in vivo
Mus musculus [12] = assay: Potentiation of L-dopa/carbidopa activity in reserpine-treated CD1 mouse assessed as increase in straightening at 10 mg/kg, ip administered 22 hrs post reserpine challenge followed by L-dopa/carbidopa adminstration at 30 mins measured after 1 hr relative to control; assay type: functional, organism-based; design: dose 10 mg/kg
Mus musculus [13] = assay: Potentiation of L-dopa/carbidopa activity in reserpine-treated CD1 mouse assessed as increase in velocity at 10 mg/kg, ip administered 22 hrs post reserpine challenge followed by L-dopa/carbidopa adminstration at 30 mins measured after 1 hr relative to control; assay type: functional, organism-based; design: dose 10 mg/kg

Row | SMILES | Activity (Mus musculus [1]) | Activity (Mus musculus [2]) | Activity (Mus musculus [3]) | Activity (Mus musculus [4]) | Activity (Mus musculus [5]) | Activity (Mus musculus [6]) | Activity (Mus musculus [7]) | Activity (Mus musculus [8]) | Activity (Mus musculus [9]) | Activity (Mus musculus [10]) | Activity (Mus musculus [11]) | Activity (Mus musculus [12]) | Activity (Mus musculus [13])
1 | O=C(Nc1cc2ccccc2oc1=O)OCc1ccccc1 | Non-toxic | Active | Active | Active | Active | Active | Non-toxic | Non-toxic | Active | Non-toxic | Non-toxic | – | –
2 | C#CCN(C)[C@H](C)Cc1ccccc1 [SELEGILINE] | Toxic | – | Active | – | – | Active | Toxic | Toxic | – | Toxic | – | Active | Active
